Results from PMC6273584, “Synthesis of Thiazolo[5,4-f]quinazolin-9(8H)-ones as Multi-Target Directed Ligands of Ser/Thr Kinases” (Molecules, 2016).
Read-outs that look alike come from different tables or passages of the source.

Tests used:
[1] = target: T1, CLK1 (Homo sapiens, UniProt P49759); settings: read-out: CLK1 IC50, 15 μM ATP, 30 min, 30 °C, triplicate
[2] = target: GSK-3α/β; experiment: In vitro kinase assay GSK-3α/β, GS-1 peptide substrate; type: biochemical, Porcine
Description: (§1) It was also tested as positive control and its IC50 values were compared to those obtained for the compounds under study.
(§2) Buffer A: MgCl2 (10 mM), 1 mM ethylene glycol-bis(2-aminoethylether)-N,N,N’,N’- tetraacetic acid (EGTA), 1 mM dithiothreitol (DTT), 25 mM Tris-HCl pH 7.5, 50 μg heparin/mL. Buffer B: β-Glycerophosphate (60 mM), 30 mM p-nitrophenylphosphate, 25 mM 3-(N-morpholino) propanesulfonic acid (Mops) (pH 7.2), 5 mM EGTA, 15 mM MgCl2, 1 mM DTT, 0.1 mM sodium vanadate.
(§3) Blank values were substracted and activities expressed in % of the maximal activity, i.e., in the absence of inhibitors. Controls were performed with appropriate dilutions of dimethylsulfoxide (DMSO). IC50 values were calculated from dose-response curves established by Sigma-Plot graphs. The GSK-3, CK1, DYRK1A and CLK1 peptide substrates were obtained from Proteogenix (Oberhausbergen, France).
(§4) CDK5/p25. (Human, recombinant) was prepared as previously described. […] ATP (3000 Ci/mmol; 10 mCi/mL) in a final volume of 30 μL. After 30 min incubation at 30 °C, 25 μL aliquots of supernatant were spotted onto sheets of P81 phosphocellulose paper (Whatman) and 20 s later, the filters were washed eight times (for at least 5 min each time) in a solution of 10 mL phosphoric acid/L of water. The wet filters were counted in the presence of 1 mL ACS (Amersham, UK) scintillation fluid.
GSK-3α/β. (Porcine brain, native) was assayed, as described for CDK5/p25 but in buffer A and using a GSK-3 specific substrate (GS-1: […]pSEDEEE) (pS stands for phosphorylated serine).

[3] = target: T2, DYRK1A (Rattus norvegicus, UniProt Q63470); experiment: In vitro kinase assay DYRK1A, Woodtide substrate; type: biochemical
Description: as §1, §2, §3, §4

[4] = target: CK1δ/ε; experiment: In vitro kinase assay CK1δ/ε, CK1-specific peptide substrate; type: biochemical, Porcine; settings: 15 μM ATP, 30 min, 30 °C, triplicate; <50% inhibition at 10 μM = IC50 >10 μM
Description: as §1, §2, §3, §4
CK1δ/ε. (Porcine brain, native) was assayed as described for CDK5/p25 but using the CK1-specific peptide substrate […]pSAYSITA [37].

[5] = target: T3, CDK5/p25 (Homo sapiens, UniProt Q00535); experiment: In vitro kinase assay CDK5/p25, [γ-33P]ATP, histone H1 substrate; type: biochemical
T3 construct: made in house
Description: as §1, §2, §3, §4

[6] = system: CDK1; parameters: method as in PMID 17981370, PMID 16644220; settings: Figure 2; earlier work; cited from earlier work
[7] = target: T2, DYRK1A; experiment: DYRK1A inhibition of earlier compounds I and II (Figure 2); type: biochemical; settings: list of targeted kinases extended for earlier compounds
[8] = target: T1, CLK1; experiment: biochemical
[9] = 15 μM ATP, 30 min, 30 °C, triplicate, <50% inhibition at 10 μM = IC50 >10 μM, read-out: DYRK1A IC50
[10] = 15 μM ATP, 30 min, 30 °C, triplicate, <50% inhibition at 10 μM = IC50 >10 μM

T3 sequence (Q00535 whole entry): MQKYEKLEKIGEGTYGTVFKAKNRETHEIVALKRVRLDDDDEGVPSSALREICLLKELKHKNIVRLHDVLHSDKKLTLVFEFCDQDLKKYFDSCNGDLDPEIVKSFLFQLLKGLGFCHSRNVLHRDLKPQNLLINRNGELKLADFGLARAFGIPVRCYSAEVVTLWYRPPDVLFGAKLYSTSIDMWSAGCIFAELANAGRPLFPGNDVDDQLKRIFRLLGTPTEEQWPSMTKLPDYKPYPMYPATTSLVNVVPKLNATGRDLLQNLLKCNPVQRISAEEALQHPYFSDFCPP
T3 sequence (Q15078 99-307 partner limits assumed): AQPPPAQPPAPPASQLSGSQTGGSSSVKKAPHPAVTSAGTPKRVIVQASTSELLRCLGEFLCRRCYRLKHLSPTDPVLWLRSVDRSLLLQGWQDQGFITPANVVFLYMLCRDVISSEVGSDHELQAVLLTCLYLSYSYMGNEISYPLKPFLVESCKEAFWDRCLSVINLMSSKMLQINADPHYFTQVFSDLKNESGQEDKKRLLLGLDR
T1 sequence (P49759 whole entry): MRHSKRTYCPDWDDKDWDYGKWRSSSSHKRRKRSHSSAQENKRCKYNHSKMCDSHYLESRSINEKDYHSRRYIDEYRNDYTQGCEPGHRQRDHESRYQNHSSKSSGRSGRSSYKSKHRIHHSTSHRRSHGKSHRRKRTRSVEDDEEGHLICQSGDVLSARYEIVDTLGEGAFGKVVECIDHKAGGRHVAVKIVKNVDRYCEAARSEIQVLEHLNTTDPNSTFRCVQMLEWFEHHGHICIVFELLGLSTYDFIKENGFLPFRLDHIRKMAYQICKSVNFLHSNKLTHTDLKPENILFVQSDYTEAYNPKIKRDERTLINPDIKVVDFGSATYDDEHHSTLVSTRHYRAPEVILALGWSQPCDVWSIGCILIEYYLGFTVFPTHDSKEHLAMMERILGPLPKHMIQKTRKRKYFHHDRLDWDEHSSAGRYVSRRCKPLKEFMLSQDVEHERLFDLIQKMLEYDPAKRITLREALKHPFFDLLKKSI

COCCn1cnc2ccc3nc(C(=N)OC)sc3c2c1=O [Compound 12b, Methyl 8-(2-methoxyethyl)-9-oxo-8,9-dihydrothiazolo[5,4-f]quinazoline-2-carbimidate]
IC50 [1]: 0.51 µM
IC50 [2]: 1.2 µM
IC50 [3, 9]: 0.39 µM
IC50 [4]: > 10 µM
IC50 [5, 10]: > 10 µM

CCn1cnc2ccc3nc(C(=N)OCc4ccccc4)sc3c2c1=O [II]
CDK1 IC50 [6]: micromolar range
IC50 [6]: 1.3 µM
DYRK1A IC50 [7]: micromolar
IC50 [7]: 1.5 µM

COCCn1cnc2ccc3nc(C(=N)OC(C)C)sc3c2c1=O [Compound 15b, Isopropyl 8-(2-methoxyethyl)-9-oxo-8,9-dihydro[1, 3]thiazolo[5,4-f]quinazoline-2-carboximidate]
IC50 [1]: 2.1 µM
IC50 [2]: 2.5 µM
IC50 [3, 9]: 3.9 µM
IC50 [4]: > 10 µM
IC50 [5, 10]: > 10 µM

CC(C)n1cnc2ccc3nc(C(=N)OCc4ccccc4)sc3c2c1=O [Compound 13d, Benzyl 8-isopropyl-9-oxo-8,9-dihydro[1, 3]thiazolo[5,4-f]quinazoline-2-carbimidate]
IC50 [1]: 0.27 µM
IC50 [2]: 0.057 µM
IC50 [4]: > 10 µM
IC50 [5, 10]: > 10 µM

COCCCn1cnc2ccc3nc(C(=N)OC(C)C)sc3c2c1=O [Compound 15c, Isopropyl 8-(3-methoxypropyl)-9-oxo-8,9-dihydro[1, 3]thiazolo[5,4-f]quinazoline-2-carboximidate]
IC50 [1]: 1.2 µM
IC50 [2]: 0.27 µM
IC50 [3, 9]: 0.95 µM
IC50 [4]: > 10 µM
IC50 [5, 10]: > 10 µM

COC(=N)c1nc2ccc3ncn(CCN(C)C)c(=O)c3c2s1 [Compound 12i, Methyl 8-[(3-dimethylamino)ethyl]-9-oxo-8,9-dihydrothiazolo[5,4-f]quinazoline-2-carbimidate]
IC50 [1]: 1.8 µM
IC50 [2]: 1.8 µM
IC50 [3, 9]: 1 µM
IC50 [4]: > 10 µM
IC50 [5, 10]: > 10 µM

COCCCn1cnc2ccc3nc(C(=N)OC)sc3c2c1=O [Compound 12c, Methyl 8-(3-methoxypropyl)-9-oxo-8,9-dihydrothiazolo[5,4-f]quinazoline-2-carbimidate]
IC50 [2]: 0.12 µM
IC50 [3]: 0.32 µM
IC50 [8]: 0.21 µM
IC50 [4]: > 10 µM
IC50 [5]: > 10 µM

COCCCn1cnc2ccc3nc(C(=N)OCc4ccccc4)sc3c2c1=O [Compound 13c, Benzyl 8-(3-methoxypropyl)-9-oxo-8,9-dihydrothiazolo[5,4-f]quinazoline-2-carbimidate]
IC50 [2]: 0.11 µM
IC50 [3]: 0.16 µM
IC50 [8]: 0.48 µM
IC50 [4]: > 10 µM
IC50 [5]: > 10 µM
